In paper PMC12720113, “The binding mechanism of a novel ferrous ion chelating peptide from chicken blood hemoglobin and the bioavailability of the chelate” (Food Chemistry: X, 2025):
Read-outs that look alike come from different tables or passages of the source. Marks after values point to notes of the source that are not given here. Where no end group is shown, it is not given here.

Legend:
[1] = Effect of different dietary components on iron retention; format: in vitro ADME
Experimental: Then, the pH was adjusted to 2.0, and oxalic acid solution (1 %, w/v) was added. Gastrointestinal digestion simulation was then performed under the conditions described in 2.9.2. After the reaction was complete, the enzyme was inactivated, and the supernatant was collected after centrifugation. To assess the effects of phytate and dietary fiber on iron absorption, 1 % phytate and 8 % dietary fiber were added to the sample solution, and the digestion and measurement steps were repeated. By comparing changes in iron retention under different treatment conditions, the impacts of phytate and dietary fiber on the stability of […] chelate were analyzed. For calculations of iron retention rates, refer to Section 2.9.1.

[2] = Iron chelating rate (alcohol precipitation method); format: binding; settings: synthesized peptide 1 mg/mL, pH 5 sodium acetate buffer, 1 mL + 2 mL FeCl2•4H2O 1.5 mM, 37 °C, 30 min, means ± SEM, three independent experiments
Experimental: The detection of iron chelation activity was performed using the method described by [Lin et al. (2021)]. The peptide solution was prepared using sodium acetate buffer. Subsequently, 1 mL of the peptide solution (1 mg/mL, pH 5) was mixed with 2 mL of FeCl₂•4H₂O (1.5 mM) and reacted at 37 °C for 30 min. Then, the alcohol precipitation method was used to determine the chelation rate of ferrous ions:(1) Iron chelating rate%=A−A1/A×100% where: A is the total amount of ions added; A1 is the content of free ions in the supernatant.
The peptides identified by mass spectrometry were synthesized by China Qiangyao Co., Ltd. (Shanghai, China) using Fmoc-protected amino acid solid-phase peptide synthesis, with the purity of these peptides evaluated at over 98 %. The ferrous ion chelating activity was verified using the method described in Section 2.3.

[3] = In vitro digestive simulation (iron retention); format: in vitro ADME
Experimental: In vitro simulated digestion of […] according to [Ding et al. (2025)]. […] To simulate the digestive processes of the stomach and intestines separately, the pH values of the three iron supplements were adjusted to 2.0 and 7.6, respectively, and pepsin and trypsin (3 %, w/w) were added separately. The mixture was incubated in a water bath at 37 °C for 2 h. To simulate the digestive processes of the gastrointestinal tract, the three iron supplements were subjected to simulated gastric digestion followed by intestinal digestion. The retention rates of iron after gastric digestion, intestinal digestion, and simulated gastrointestinal digestion were determined according to the method described in Section 2.9.1.

[4] = Temperature and pH stability test (iron retention); format: physicochemical; settings: 1 mg/mL aqueous solution, 2 h
Experimental: The temperature stability of […]-Fe was determined using the method described by [Qu et al. (2022)]. The aqueous solution of […]-Fe (1 mg/mL) was incubated for 2 h at a temperature gradient of 30–80 °C and a pH gradient of 2–9. […]-Fe was separated using the alcohol precipitation method to calculate the iron retention rate:(2) Iron retention%=A−A0/A×100% where A represents the total iron content added to the reaction (mmol/mL), A0 represents the iron ion content in the supernatant after the reaction (mmol/mL).

[5] = Particle size distribution; format: physicochemical; settings: 1 mg/mL solution, 25 °C, Zetasizer Nano ZSE
Experimental: (§1) An appropriate amount of […] and […]-Fe solutions with a concentration of 1 mg/mL were added to U-shaped cuvettes and equilibrated at a constant temperature of 25 °C for 5 s. The Zeta potential values and particle size distributions of the samples were determined using a Zetasizer Nano ZSE analyzer to evaluate their surface charge characteristics and solution stability.

Zeta potential = format: physicochemical; settings: 1 mg/mL solution, 25 °C, Zetasizer Nano ZSE
Experimental: as §1

[6] = Intermolecular force analysis with dissociation reagents; format: physicochemical; settings: 2 mg/mL, read at 500 nm
Experimental: Referring to the study by [Sun et al. (2020)], the intermolecular forces of […]-Fe were analyzed using different dissociation reagents. The absorbance values at 500 nm of the sample solution (2 mg/mL) were measured at the initial moment of the reaction (0 min) and after 30 min, respectively. At 30 min of the reaction, 1 mol/L NaCl, 30 mmol/L DTT (dithiothreitol), 0.5 % SDS, and 6 mol/L urea were added sequentially, followed immediately by absorbance detection using an enzyme meter.

Caco-2 cells = test: Caco-2 cell viability assay (MTT); format: cell-based; settings: 24 h, 490 nm, means ± SEM
Experimental: Caco-2 cell viability assay was conducted on […]-Fe according to the method of [Wu et al. (2019)]. And lactoferrin was chosen as an experimental control. When the cell fusion rate was close to 80 %, the cells were dissociated and passaged using the trypsin-EDTA mixed digest. Cultivate the 23rd generation of cells in the logarithmic growth phase at 37 °C and 5 % CO₂ for 24 h. Then, a gradient concentration of […]-Fe and Ac-[…]-Fe was added to the wells of the experimental group, and all the samples were incubated for 24 h. After incubation, 20 μL of MTT reagent was added to each well. After 2 h of reaction, 150 μL of DMSO was added and agitated for 10 min. The absorbance values at 490 nm were measured to reflect cell activity levels. Cell relative activity (%) was calculated:(3) Relative cell viability%=As−Ab/Ac−Ab×100 where: As represents the absorbance value of the sample treatment, Ab represents the absorbance value without cells, and Ac represents the absorbance value without sample treatment.

Thermogravimetry (TG) = format: physicochemical; settings: TAEDKKLIQ from 249 °C to 426 °C; TAEDKKLIQ-Fe from 638 °C to 686 °C; 10 °C/min
Experimental: 5 mg of […] and […]-Fe lyophilized powders were weighed, respectively, and the thermal stability analysis was carried out by […]. The sample chamber temperature range is set from 50 to 800 °C, with a heating rate of 10 °C/min. The thermogravimetric change curves of the samples were recorded synchronously.

## O=C([O-])[C@H](O)[C@@H](O)[C@H](O)[C@H](O)CO.O=C([O-])[C@H](O)[C@@H](O)[C@H](O)[C@H](O)CO.[Fe+2] [ferrous gluconate, reference compound]
[1]; 1 % oxalic acid, 1 % phytate or 8 % dietary fiber, then simulated gastrointestinal digestion, 37 °C
  Soluble iron content in the presence of phytic acid, oxalic acid or dietary fiber alone (rank): lower

## LSDLHAHKLR [Hemoglobin subunit alpha-A(84th–93th) peptide, synthesized]
[2]
  Chelation rate (%): 87.07 ± 0.12^b %

## QAWEKAASH [Hemoglobin subunit alpha-D(12th–20th) peptide, synthesized]
[2]
  Chelation rate (%): 81.38 ± 0.27^c %

## TAEDKKLIQ
[3]; pH 7.6, trypsin 3 % w/w, 37 °C, 2 h, after gastric phase
  Ferrous retention after transfer to simulated intestinal fluid digestion: significant increase in ferrous retention

## TAEDKKLIQ-Fe
[4]; alcohol precipitation
  Ferrous ion retention at 30 °C to 40 °C: no significant loss observed
[4]; pH range 6-9
  Iron retention, pH 6-9: above 88%
[4]; temperature gradient 30-80 °C, above 40 °C
  Overall retention of ferrous ions as the temperature continued to increase: above 40%
[5]
  Particle size, peak of the distribution: 295 nm
[1]
  Retention of soluble iron with phytic acid: 76.73%
  Soluble iron content in the presence of phytic acid, oxalic acid or dietary fiber alone (rank): highest level
Zeta potential
  Zeta potential: 41.8 mV
[6]; 30 mmol/L DTT added at 30 min, disulfide bonds
  Decrease in transmittance after DTT: 0.138
[6]; 0.5 % SDS added at 30 min, hydrophobic forces
  Decrease in transmittance after SDS: 0.103
[6]; 1 mol/L NaCl added at 30 min, electrostatic interactions
  Decrease in transmittance after NaCl: 0.20
[6]; 6 mol/L urea added at 30 min, hydrogen bonding
  Decrease in transmittance after urea: 0.09
Caco-2 cells; Caco-2, 0.125 mg/mL
  Relative vitality of cells (%): 98.06 ± 1.22%
Caco-2 cells; Caco-2, 0.25 mg/mL
  Relative vitality of cells (%): 97.72 ± 1.67%
Caco-2 cells; Caco-2, 0.5 mg/mL
  Relative vitality of cells (%): 97.53 ± 0.89%
Caco-2 cells; Caco-2, 1 mg/mL
  Relative vitality of cells (%): 97.21 ± 1.45%
[3]
  Iron retention in simulated digestion compared with the control iron supplements: superior to that of ferrous sulfate and ferrous gluconate
Thermogravimetry (TG)
  Weight loss, second stage (TG): 12.32%
